Experimental data taken from patent US4208514A, “4(3H)-Oxobenzo-2,1,3-thiadiazine-2,2-dioxides” (The Dow Chemical Company, priority 1976, dated 1980).

Experiments:
Type in all cases: in vivo
Jimson Weed = test: Selective post-emergent greenhouse test, Jimson Weed; settings: post-emergence, 336 h, 2 weeks; for pest or weed control at 358.672 g/ha: 0.32 lbs/acre; for pest or weed control at 706.135 g/ha: 0.63 lbs/acre
Text: (§1) So as to illustrate clearly the phytotoxic properties of the various active ingredients of the present invention, a group of controlled greenhouse experiments is described below.
(§2) Various species of plants, both broadleaf weeds and valuable crops, were planted in beds of good agricultural soil in a greenhouse. After the plants had emerged and grown to a height of about 2-6 inches, a portion of the plants were sprayed with an aqueous mixture, made by mixing a selected active ingredient and emulsifier or dispersant with water to provide solution containing 250 or 125 ppm active ingredient, employing sufficient amounts of the treating composition to provide low post emergent application rates of about 0.63 or 0.32 pounds per acre. Other portions of the plants were left untreated to serve as controls. In each test the active ingredient was a 3-methylethyl-1H-2,1,3-benzothiadiazin-4(3H)-one-2,2-dioxide having a substituent in the one position according to the invention.
(§3) After a period of 2 weeks the selective effect of the test ingredient on the plants was evaluated by a comparison with the control group of plants.

Velvet Leaf [1] = test: Selective post-emergent greenhouse test, Velvet Leaf; settings: post-emergence, 336 h, 2 weeks; for pest or weed control at 358.672 g/ha: 0.32 lbs/acre; for pest or weed control at 706.135 g/ha: 0.63 lbs/acre
Text: as §1, §2, §3

Soybean = test: Selective post-emergent greenhouse test, Soybean (crop injury); settings: Glycine max, post-emergence, 336 h, 2 weeks, read-out: % Control Soybean; for plant injury at 358.672 g/ha: 0.32 lbs/acre; for plant injury at 706.135 g/ha: 0.63 lbs/acre
Text: as §1, §2, §3

Cotton = test: Selective post-emergent greenhouse test, Cotton (crop injury); settings: Gossypium hirsutum, post-emergence, 336 h, post-emergent, 2 weeks, crop, read-out: % Control Cotton; for plant injury at 358.672 g/ha: 0.32 lbs/acre; for plant injury at 706.135 g/ha: 0.63 lbs/acre
Text: as §1, §2, §3

Nutsedge = test: General post-emergent herbicidal activity at 10 lbs/acre, Nutsedge; settings: Cyperus, post-emergence, 336 h
Text: as §2, with “[…], […]” for “emulsifier or dispersant with water to provide solution containing 250 or 125 ppm active ingredient, employing sufficient amounts of the treating composition to provide low post emergent application rates of about 0.63 or 0.32 pounds per acre.”
as §3

Pig Weed = test: General post-emergent herbicidal activity at 10 lbs/acre, Pig Weed; settings: post-emergence, 336 h
Text: as §2, with “[…], […]” for “emulsifier or dispersant with water to provide solution containing 250 or 125 ppm active ingredient, employing sufficient amounts of the treating composition to provide low post emergent application rates of about 0.63 or 0.32 pounds per acre.”
as §3

Annual Morning Glory = test: General post-emergent herbicidal activity at 10 lbs/acre, Annual Morning Glory; settings: Ipomoea, post-emergence, 336 h
Text: as §2, with “[…], […]” for “emulsifier or dispersant with water to provide solution containing 250 or 125 ppm active ingredient, employing sufficient amounts of the treating composition to provide low post emergent application rates of about 0.63 or 0.32 pounds per acre.”
as §3

Velvet Leaf [2] = test: General post-emergent herbicidal activity at 10 lbs/acre, Velvet Leaf; settings: post-emergence, 336 h
Text: as §2, with “[…], […]” for “emulsifier or dispersant with water to provide solution containing 250 or 125 ppm active ingredient, employing sufficient amounts of the treating composition to provide low post emergent application rates of about 0.63 or 0.32 pounds per acre.”
as §3

Structure (SMILES) | pest or weed control at 358.672 g/ha (Jimson Weed) [%] | pest or weed control at 706.135 g/ha (Jimson Weed) [%] | pest or weed control at 358.672 g/ha (Velvet Leaf [1]) [%] | pest or weed control at 706.135 g/ha (Velvet Leaf [1]) [%] | plant injury at 358.672 g/ha (Soybean) [%] | plant injury at 706.135 g/ha (Soybean) [%] | plant injury at 358.672 g/ha (Cotton) [%] | plant injury at 706.135 g/ha (Cotton) [%] | pest or weed control at 11208.5 g/ha (Nutsedge) [%] | pest or weed control at 11208.5 g/ha (Pig Weed) [%] | pest or weed control at 11208.5 g/ha (Annual Morning Glory) [%] | pest or weed control at 11208.5 g/ha (Velvet Leaf [2]) [%]
CC(Cl)C(=O)N1c2ccccc2C(=O)N(C(C)C)S1(=O)=O (stereo not drawn) [COCHClCH3, 1H-2,1,3-Benzothiadiazin-4(3H)-one: 1-(2-chloro-1-oxopropyl)-3-(1-methylethyl)-; 2,2-dioxide] | 100 | 100 | 100 | 100 | 0 | 0 | 0 | 100 | 95 | 100 | 100 | 100
CC(=O)N1c2ccccc2C(=O)N(C(C)C)S1(=O)=O [COCH3, 1H-2,1,3-Benzothiadiazin-4(3H)-one: 1-acetyl-3-(1-methyl-ethyl)-; 2,2-dioxide] | 60 | 60 | 100 | 100 | 0 | 0 | 5 | 0 | 95 | 100 | 100 | 100
C=CCOC(=O)N1c2ccccc2C(=O)N(C(C)C)S1(=O)=O [CO2 CH2 CHCH2, 1H-2,1,3-Benzothiadiazine-1-carboxylic Acid: 3,4-dihydro-3-(1-methylethyl)-4-oxo-, 2-Propenyl Ester, 2,2-Dioxide] | 100 | 100 | 100 | 100 | 0 | 0 | 50 | 50 | 95 | 100 | 100 | 100
